In assay [1] the target is T1, human M3 muscarinic receptor (Homo sapiens, UniProt P20309).
T1 construct: expressed in transfected cells; host or cells: CHO-K1
Briefly: Inhibitory effect on methacholine-induced calcium influx, FLIPR assay, CHO-K1 cells stably expressing the human M3 muscarinic receptor. The format is cell-based. Particulars: inhibition of calcium influx induced by methacholine. Put shortly: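 Dye-loaded hM3 CHO-K1 cells were preincubated 180 s with compound solutions prepared at 10 two-fold concentrations (0.01–1000 nM). A 30 nM methacholine solution was then added. Fluorescence was traced for 170 s; max−min signal gave % inhibition against agonist and no-agonist controls, and IC50 came from a four-parameter logistic fit.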

Assay [2] addresses T2, human β2 adrenergic receptor (Homo sapiens, UniProt P07550).
T2 construct: expressed in transfected cells; host or cells: CHO-K1
Briefly: Whole-cell cAMP Flashplate assay using CHO-K1 cells stably expressing human β2 adrenergic receptor. It counts as cell-based. Conditions: cAMP production.

Where a name gives a salt, the structure may show the parent alone.

T1 sequence (P20309 whole entry): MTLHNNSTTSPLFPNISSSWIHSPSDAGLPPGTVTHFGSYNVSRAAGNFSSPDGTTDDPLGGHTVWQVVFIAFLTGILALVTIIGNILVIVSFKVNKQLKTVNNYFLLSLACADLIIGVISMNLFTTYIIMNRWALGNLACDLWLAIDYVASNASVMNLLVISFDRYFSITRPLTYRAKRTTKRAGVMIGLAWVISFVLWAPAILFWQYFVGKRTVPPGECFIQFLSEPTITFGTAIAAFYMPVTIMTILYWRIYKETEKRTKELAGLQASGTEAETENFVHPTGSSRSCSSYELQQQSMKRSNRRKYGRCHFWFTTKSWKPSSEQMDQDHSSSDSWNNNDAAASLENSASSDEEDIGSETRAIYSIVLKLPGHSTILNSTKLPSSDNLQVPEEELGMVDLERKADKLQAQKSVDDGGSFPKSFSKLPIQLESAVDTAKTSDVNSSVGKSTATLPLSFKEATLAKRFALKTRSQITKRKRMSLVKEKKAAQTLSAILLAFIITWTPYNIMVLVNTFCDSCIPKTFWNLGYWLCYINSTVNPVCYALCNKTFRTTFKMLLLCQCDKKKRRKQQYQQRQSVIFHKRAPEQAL
T2 sequence (P07550 whole entry): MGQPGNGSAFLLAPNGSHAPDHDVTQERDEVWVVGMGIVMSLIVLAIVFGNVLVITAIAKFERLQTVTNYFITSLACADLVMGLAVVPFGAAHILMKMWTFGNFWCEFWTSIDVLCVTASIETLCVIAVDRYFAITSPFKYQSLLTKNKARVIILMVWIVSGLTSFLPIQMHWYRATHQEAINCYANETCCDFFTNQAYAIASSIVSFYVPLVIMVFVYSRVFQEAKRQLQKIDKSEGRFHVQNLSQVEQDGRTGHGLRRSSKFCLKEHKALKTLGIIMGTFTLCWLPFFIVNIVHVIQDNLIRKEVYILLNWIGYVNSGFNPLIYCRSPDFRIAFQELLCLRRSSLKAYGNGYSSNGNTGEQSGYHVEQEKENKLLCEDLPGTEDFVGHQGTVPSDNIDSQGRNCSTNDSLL

Regarding `C[N+]1(C)CCC(OC(=O)Nc2cc(CCCC(=O)Nc3ccc(CNC[C@H](O)c4ccc(O)c5[nH]c(=O)ccc45)cc3Br)ccc2-c2ccccc2)CC1` [Example 30, 4-({[5-(3-{[2-bromo-4-({[(2R)-2-hydroxy-2-(8-hydroxy-2-oxo-1,2-dihydroquinolin-5-yl)ethyl]amino}methyl)phenyl]carbamoyl}propyl)-2-phenylphenyl]carbamoyl}oxy)-1,1-dimethylpiperidin-1-ium trifluoroacetate], the 50% inhibitory concentration (IC50) (commonly the concentration that gives 50% inhibition) in assay [1] was found to be 0.0129 µM. For the same compound, it took 0.0005 µM to reach a half-maximal effect in assay [2] (EC50).
`C[N+]1(C)[C@@H]2CC(OC(=O)Nc3cc(CCC(=O)Nc4ccc(CCCNC[C@H](O)c5ccc(O)c6[nH]c(=O)ccc56)cc4)ccc3-c3ccccc3)C[C@H]1[C@@H]1O[C@@H]12` (stereo partly drawn) [Example 73, (1R,2R,4S,5S,7S)-7-({[5-(2-{[4-(3-{[(2R)-2-hydroxy-2-(8-hydroxy-2-oxo-1,2-dihydroquinolin-5-yl)ethyl]amino}propyl)phenyl]carbamoyl}ethyl)-2-phenylphenyl]carbamoyl}oxy)-9,9-dimethyl-3-oxa-9-azatricyclo[3.3.1.0^2,4]nonan-9-ium trifluoroacetate]: the half-maximal inhibitory concentration (IC50) in assay [1] is 0.0275 µM. Besides, the EC50 (usually the concentration giving half of the maximal effect) in assay [2] stood at 0.01 µM.
For `C[N+]1(C)[C@@H]2CC(OC(=O)Nc3cc(CCC(=O)Nc4ccc(CNC[C@H](O)c5ccc(O)c6[nH]c(=O)ccc56)c(Cl)c4)ccc3-c3ccccc3)C[C@H]1[C@@H]1O[C@@H]12` (stereo partly drawn) [Example 45, (1R,2R,4S,5S,7S)-7-({[5-(2-{[3-chloro-4-({[(2R)-2-hydroxy-2-(8-hydroxy-2-oxo-1,2-dihydroquinolin-5-yl)ethyl]amino}methyl)phenyl]carbamoyl}ethyl)-2-phenylphenyl]carbamoyl}oxy)-9,9-dimethyl-3-oxa-9-azatricyclo[3.3.1.0^2,4]nonan-9-ium trifluoroacetate], in that order: 0.0265 µM and 0.0041 µM.
On the same counts, the results for `C[N+]1(C)CCC(OC(=O)Nc2cc(CCCC(=O)Nc3ccc(CNC[C@H](O)c4ccc(O)c5[nH]c(=O)ccc45)c(C(F)(F)F)c3)ccc2-c2ccccc2)CC1` [Example 31, 4-({[5-(3-{[4-({[(2R)-2-hydroxy-2-(8-hydroxy-2-oxo-1,2-dihydroquinolin-5-yl)ethyl]amino}methyl)-3-(trifluoromethyl)phenyl]carbamoyl}propyl)-2-phenylphenyl]carbamoyl}oxy)-1,1-dimethylpiperidin-1-ium trifluoroacetate] are 0.0157 µM and 0.0251 µM.
For `COc1cc(CNC[C@H](O)c2ccc(O)c3[nH]c(=O)ccc23)ccc1NC(=O)CCCc1ccc(-c2ccccc2)c(NC(=O)OC2C[C@@H]3[C@H]4O[C@H]4[C@H](C2)[N+]3(C)C)c1` (stereo partly drawn) [Example 38, (1R,2R,4S,5S,7S)-7-({[5-(3-{[4-({[(2R)-2-hydroxy-2-(8-hydroxy-2-oxo-1,2-dihydroquinolin-5-yl)ethyl]amino}methyl)-2-methoxyphenyl]carbamoyl}propyl)-2-phenylphenyl]carbamoyl}oxy)-9,9-dimethyl-3-oxa-9-azatricyclo[3.3.1.0^2,4]nonan-9-ium trifluoroacetate], in that order: 0.0156 µM and 0.0106 µM.
Take `COc1cc(CNC[C@H](O)c2ccc(O)c3[nH]c(=O)ccc23)ccc1NC(=O)CCCc1ccc(-c2ccccc2)c(NC(=O)OC2CC[N+](C)(C)CC2)c1` [Example 21, 4-({[5-(3-{[4-({[(2R)-2-hydroxy-2-(8-hydroxy-2-oxo-1,2-dihydroquinolin-5-yl)ethyl]amino}methyl)-2-methoxyphenyl]carbamoyl}propyl)-2-phenylphenyl]carbamoyl}oxy)-1,1-dimethylpiperidin-1-ium trifluoroacetate]: in assay [1], the half-inhibitory concentration (IC50) came to 0.0168 µM. In assay [2], this compound gave an EC50 of 0.0038 µM.
For `C[N+]1(C)CCC(OC(=O)Nc2cc(CCCOCCCCCNC[C@H](O)c3ccc(O)c4[nH]c(=O)ccc34)ccc2-c2ccccc2)CC1` [Example 78, 4-{[(5-{3-[(5-{[(2R)-2-hydroxy-2-(8-hydroxy-2-oxo-1,2-dihydroquinolin-5-yl)ethyl]amino}pentyl)oxy]propyl}-2-phenylphenyl)carbamoyl]oxy}-1,1-dimethylpiperidin-1-ium trifluoroacetate], in that order: 0.0741 µM and 0.0013 µM.
On to `C[N+]1(C)CCC(OC(=O)Nc2cc(CCCC(=O)Nc3ccc(CNC[C@H](O)c4ccc(O)c5[nH]c(=O)ccc45)cc3)ccc2-c2ccccc2)CC1` [Example 32, 4-({[5-(3-{[4-({[(2R)-2-hydroxy-2-(8-hydroxy-2-oxo-1,2-dihydroquinolin-5-yl)ethyl]amino}methyl)phenyl]carbamoyl}propyl)-2-phenylphenyl]carbamoyl}oxy)-1,1-dimethylpiperidin-1-ium trifluoroacetate], for which the IC50 in assay [1] came to 0.0161 µM. The concentration for a half-maximal effect (EC50) in assay [2] was 0.0084 µM.
For `Cc1cc(CNC[C@H](O)c2ccc(O)c3[nH]c(=O)ccc23)ccc1NC(=O)CCCc1ccc(-c2ccccc2)c(NC(=O)O[C@@H]2C[C@@H]3[C@H]4O[C@H]4[C@H](C2)[N+]3(C)C)c1` [Example 39, (1R,2R,4S,5S,7S)-7-({[5-(3-{[4-({[(2R)-2-hydroxy-2-(8-hydroxy-2-oxo-1,2-dihydroquinolin-5-yl)ethyl]amino}methyl)-2-methylphenyl]carbamoyl}propyl)-2-phenylphenyl]carbamoyl}oxy)-9,9-dimethyl-3-oxa-9-azatricyclo[3.3.1.0^2,4]nonan-9-ium trifluoroacetate], in that order: 0.016 µM and 0.004 µM.
On the same counts, the results for `C[N+]1(C)CCC(OC(=O)Nc2cc(CCNC(=O)c3ccc(CNC[C@H](O)c4ccc(O)c5[nH]c(=O)ccc45)cc3)ccc2-c2ccccc2)CC1` [Example 80, 4-({[5-(2-{[4-({[(2R)-2-hydroxy-2-(8-hydroxy-2-oxo-1,2-dihydroquinolin-5-yl)ethyl]amino}methyl)phenyl]formamide}ethyl)-2-phenylphenyl]carbamoyl}oxy)-1,1-dimethylpiperidin-1-ium trifluoro acetate] are 0.0299 µM and 0.0024 µM.
`COc1cc(CNC[C@H](O)c2ccc(O)c3[nH]c(=O)ccc23)ccc1NC(=O)CCc1ccc(-c2ccccc2)c(NC(=O)O[C@@H]2C[C@@H]3[C@H]4O[C@H]4[C@H](C2)[N+]3(C)C)c1` [Example 41, (1R,2R,4S,5S,7S)-7-({[5-(2-{[4-({[(2R)-2-hydroxy-2-(8-hydroxy-2-oxo-1,2-dihydroquinolin-5-yl)ethyl]amino}methyl)-2-methoxyphenyl]carbamoyl}ethyl)-2-phenylphenyl]carbamoyl}oxy)-9,9-dimethyl-3-oxa-9-azatricyclo[3.3.1.0^2,4]nonan-9-ium trifluoroacetate]: the 50% inhibitory concentration (IC50) in assay [1] stood at 0.0129 µM. In addition, it took 0.0062 µM to reach a half-maximal effect in assay [2] (EC50).
As for `COc1cc(NC(=O)CCCc2ccc(NC(=O)O[C@@H]3C[C@@H]4[C@H]5O[C@H]5[C@H](C3)[N+]4(C)C)c(-c3ccccc3)c2)c(Br)cc1CNC[C@H](O)c1ccc(O)c2[nH]c(=O)ccc12` [Example 70, (1R,2R,4S,5S,7S)-7-({[4-(3-{[2-bromo-4-({[(2R)-2-hydroxy-2-(8-hydroxy-2-oxo-1,2-dihydroquinolin-5-yl)ethyl]amino}methyl)-5-methoxyphenyl]carbamoyl}propyl)-2-phenylphenyl]carbamoyl}oxy)-9,9-dimethyl-3-oxa-9-azatricyclo[3.3.1.0^2,4]nonan-9-ium trifluoroacetate], in assay [1], the IC50 stood at 0.0603 µM. Further, in assay [2], it took 0.0002 µM to reach a half-maximal effect (EC50).
As to `COc1cc(NC(=O)CCCc2ccc(-c3ccccc3)c(NC(=O)OC3C[C@H]4CC[C@H](C3)[N+]4(C)C)c2)c(Cl)cc1CNC[C@H](O)c1ccc(O)c2[nH]c(=O)ccc12` (stereo partly drawn) [Example 48, (1R,3R)-3-{[5-(3-{[2-chloro-4-({[(2R)-2-hydroxy-2-(8-hydroxy-2-oxo-1,2-dihydroquinolin-5-yl)ethyl]amino}methyl)-5-methoxyphenyl]carbamoyl}propyl)-2-phenylphenyl]carbamoyl}oxy)-8,8-dimethyl-8-azabicyclo[3.2.1]nonan-8-ium trifluoroacetate], in assay [1], the IC50 is 0.0217 µM. The same compound gave a half-maximal effective concentration (EC50) in assay [2] of 0.0004 µM.

The values above are taken from patent US9072734B2, “Quaternary ammonium salt compounds” (Teijin Pharma Limited, priority 2009, dated 2015).
